Source: patent US20180055020A1, “Mice With Transgene Of iBox Peptide Inhibitor Of Group B p21-Activated Kinases” (Institute For Cancer Research d/b/a The Research Institute …, priority 2016, published 2018)

Columns and labels:
Type in all cases: cell-based, mouse
Fak = test: Immunoblot of lysates of ROSA26-iBox MEFs for signaling molecules (Fak and P-Fak); settings: lysates of MEFs expressing iBox (Adeno-Cre), FIG. 5D
Experimental: (§1) Primary mouse embryo fibroblasts were established from E14 embryos from pregnant ROSA26-iBox mice. Cell lines were maintained in DMEM medium supplemented with 10% of FBS, 2 mM L-glutamine and 100 Um′ penicillin/streptomycin ay 37° C. in a humidified 5% CO2 incubator. To document iBox and EGFP expression, the MEFs were transduced with Adeno-Cre which removes the LSL cassette. MEFs were imaged to documents EGFP expression and lysates were probed by immunoblot to document iBox expression using anti-GST antibodies that recognize the GST protein that is fused to the N-terminus of iBox. These lysates were also probed with antibodies against Erk and P-Erk, Src and P-Src, Fak and P-Fak, as well as GAPDH.
(§2) To analyze endogenous Pak4 activity, Pak4 was immunoprecipitated from ROSA26-iBox MEFs and Protein-A-Pak4 beads were incubated with recombinant Pacsin or CRTC1 for 10 minutes at 30° C. in a buffer containing 50 mM Tris-HCl, pH 7.5, 10 mM MgCl2, 1 mM DTT, and 50 μM ATP. Reactions were terminated with hot 6×SDS/PAGE buffer and the samples were analyzed by immunoblot using anti-P-pacsin or anti-P-CRTC1 antibodies. […] Inhibition of Erk, Src, and Fak was observed.

[1] = test system: each of the tissues studied; test: Cell proliferation on expression of the iBox transgene (preliminary experiments)
Experimental: Cells were plated at 2×10^3 in 96-well plates and 10 μl of 3-[4,5-dimethylthiazol-2-yl]-2,5-diphenyl tetrazolium bromide (MTT) solution was added to each well to a final concentration of 0.5 mg/ml. The reaction was stopped after 4 hours at 37° C. by adding 100 μl of solubilization solution (10% SDS in 0.01M HCl) and the samples were analyzed at 595 nm on Perkin Elmer Envision plate reader. Triplicates were performed for each sample, and experiments were performed on three occasions. […] An anti-Gst blot is shown.

Src = test: Immunoblot of lysates of ROSA26-iBox MEFs for signaling molecules (Src and P-Src); settings: lysates of MEFs expressing iBox (Adeno-Cre), FIG. 5D
Experimental: as §1, §2

Erk = test: Immunoblot of lysates of ROSA26-iBox MEFs for signaling molecules (Erk and P-Erk); settings: lysates of MEFs expressing iBox (Adeno-Cre), FIG. 5D
Experimental: as §1, §2

iBox: Peptide inhibitor of Group B Paks, derived from amino acids 166 to 203 of human INKA-1, linked to GST, expressed from a transgene (GLEAEDWTAALLNRGRSRQPLVLGDNCFADLVHNWMEL; GST fusion; UniProt Q96EL1 166-203, looked up, fragment)
effect on Fak signaling (immunoblot) (Fak): Inhibition | effect of iBox transgene expression on cell proliferation [1]: inhibited cell proliferation | effect on Src signaling (immunoblot) (Src): Inhibition | effect on Erk signaling (immunoblot) (Erk): Inhibition
